Data published in the NIST ThermoML archive (doi:10.1021/je060271a).
Numbers after ± are expanded uncertainties.

Conditions: 323.15 K, Liquid, Vibrating tube method

CCCCCCC(=O)OCC(COC(=O)CCCCCC)(COC(=O)CCCCCC)COC(=O)CCCCCC [pentaerythritol tetraheptanoate]
Conditions | mass density [kg/m3]
21056 kPa | 969.3 ± 1.2
21077 kPa | 969.3 ± 1.2
21094 kPa | 969.4 ± 1.2
21132 kPa | 969.3 ± 1.2
21278 kPa | 969.4 ± 1.2
21299 kPa | 969.5 ± 1.2
21316 kPa | 969.5 ± 1.2
21334 kPa | 969.5 ± 1.2
21352 kPa | 969.4 ± 1.2
21372 kPa | 969.6 ± 1.2
21390 kPa | 969.6 ± 1.2
21408 kPa | 969.8 ± 1.2
21430 kPa | 969.6 ± 1.2
21448 kPa | 969.6 ± 1.2
21466 kPa | 969.5 ± 1.2
21483 kPa | 969.6 ± 1.2
21504 kPa | 969.5 ± 1.2
21522 kPa | 969.6 ± 1.2
21540 kPa | 969.7 ± 1.2
21562 kPa | 969.6 ± 1.2
21580 kPa | 969.6 ± 1.2
21601 kPa | 969.7 ± 1.2
21619 kPa | 969.8 ± 1.2
21637 kPa | 969.7 ± 1.2
21659 kPa | 969.7 ± 1.2
21677 kPa | 969.8 ± 1.2
21695 kPa | 969.8 ± 1.2
21716 kPa | 969.7 ± 1.2
21734 kPa | 969.8 ± 1.2
21753 kPa | 969.7 ± 1.2
21775 kPa | 969.9 ± 1.2
21793 kPa | 969.8 ± 1.2
21830 kPa | 969.9 ± 1.2
21852 kPa | 969.8 ± 1.2
21871 kPa | 969.8 ± 1.2
21930 kPa | 970 ± 1.2
21950 kPa | 969.9 ± 1.2
21968 kPa | 969.8 ± 1.2
21990 kPa | 969.9 ± 1.2
22070 kPa | 970 ± 1.2
22089 kPa | 969.9 ± 1.2
22112 kPa | 969.9 ± 1.2
22131 kPa | 970 ± 1.2
22150 kPa | 969.9 ± 1.2
22173 kPa | 970 ± 1.2
22193 kPa | 970 ± 1.2
22213 kPa | 970 ± 1.2
22232 kPa | 970 ± 1.2
22275 kPa | 970.2 ± 1.2
22313 kPa | 970.1 ± 1.2
22336 kPa | 970.1 ± 1.2
22356 kPa | 970.1 ± 1.2
22380 kPa | 970.1 ± 1.2
22399 kPa | 970.2 ± 1.2
22419 kPa | 970.2 ± 1.2
22442 kPa | 970.1 ± 1.2
22463 kPa | 970.2 ± 1.2
22483 kPa | 970.2 ± 1.2
22502 kPa | 970.2 ± 1.2
22522 kPa | 970.2 ± 1.2
22546 kPa | 970.1 ± 1.2
22566 kPa | 970.2 ± 1.2
22585 kPa | 970.4 ± 1.2
22609 kPa | 970.3 ± 1.2
22629 kPa | 970.3 ± 1.2
22653 kPa | 970.3 ± 1.2
22717 kPa | 970.3 ± 1.2
22758 kPa | 970.4 ± 1.2
22779 kPa | 970.4 ± 1.2
22804 kPa | 970.4 ± 1.2
22824 kPa | 970.4 ± 1.2
22848 kPa | 970.5 ± 1.2
22869 kPa | 970.4 ± 1.2
22889 kPa | 970.4 ± 1.2
22913 kPa | 970.4 ± 1.2
23043 kPa | 970.5 ± 1.2
23090 kPa | 970.5 ± 1.2
23337 kPa | 970.7 ± 1.2
23406 kPa | 970.7 ± 1.2
23640 kPa | 970.9 ± 1.2
23662 kPa | 970.8 ± 1.2
23684 kPa | 970.9 ± 1.2
23706 kPa | 970.9 ± 1.2
23734 kPa | 970.9 ± 1.2
23970 kPa | 971.1 ± 1.2
23993 kPa | 971.2 ± 1.2
24020 kPa | 971.1 ± 1.2
24043 kPa | 971 ± 1.2
24070 kPa | 971.1 ± 1.2
24093 kPa | 971.2 ± 1.2
24116 kPa | 971.2 ± 1.2
24143 kPa | 971.2 ± 1.2
24166 kPa | 971.1 ± 1.2
24190 kPa | 971.2 ± 1.2
24215 kPa | 971.1 ± 1.2
24242 kPa | 971.3 ± 1.2
24265 kPa | 971.3 ± 1.2
24289 kPa | 971.3 ± 1.2
24317 kPa | 971.3 ± 1.2
24340 kPa | 971.4 ± 1.2
24364 kPa | 971.3 ± 1.2
24387 kPa | 971.3 ± 1.2
24415 kPa | 971.3 ± 1.2
24466 kPa | 971.4 ± 1.2
24515 kPa | 971.5 ± 1.2
24540 kPa | 971.4 ± 1.2
24564 kPa | 971.4 ± 1.2
24616 kPa | 971.5 ± 1.2
24669 kPa | 971.6 ± 1.2
24770 kPa | 971.5 ± 1.2
25086 kPa | 971.7 ± 1.2
25112 kPa | 971.8 ± 1.2
